Measurements reported in patent US20050042266A1, “Cyanoacrylate compositions containing anti-microbial agent” (priority 2003, published 2005).

What was measured:
[1] = Compatibility of triclosan/2-octyl cyanoacrylate composition with sterilization (visual observation); format: physicochemical
Experimental: A 2-octyl cyanoacrylate monomer composition is prepared as in Example 1 by adding 1 wt % triclosan to 2 mL of 2-octyl cyanoacrylate monomer. The mixture is sealed in a glass vial or plastic vial and stirred.
After sitting for about twenty-four hours, the mixture contained in the plastic vial is sterilized using electron beam sterilization to a Sterility Assurance Level (SAL) of 10^−6. After sitting for about twenty-four hours, the mixture contained in the glass vial is sterilized using dry heat sterilization to a Sterility Assurance Level (SAL) of 10^−6. The characteristics of the sterilized compositions are observed at about one minute after sterilization and later at least twenty-four hours after sterilization.

[2] = Solubility and stability of 1 wt % triclosan in 2-octyl cyanoacrylate monomer (visual observation); format: physicochemical
Experimental: A 2-octyl cyanoacrylate monomer composition is prepared by adding 1 wt % triclosan to 2 mL of 2-octyl cyanoacrylate monomer. The mixture is sealed in a glass vial or plastic vial and stirred. The characteristics of the composition are observed at about one minute after preparation and later at least twenty-four hours after preparation.

SMILES: Oc1cc(Cl)ccc1Oc1ccc(Cl)cc1Cl [triclosan, 2,4,4′-trichloro-2 hydroxy di-phenyl ether]
- compatibility with dry heat sterilization ([1]; 1 wt % in 2-octyl cyanoacrylate, glass vial, SAL 10^-6, solution remains clear): compatible
- compatibility with electron beam sterilization ([1]; 1 wt % in 2-octyl cyanoacrylate, plastic vial, SAL 10^-6, solution remains clear): compatible with electron beam sterilization
- premature polymerization during or after sterilization ([1]; about one minute and at least twenty-four hours after sterilization): does not cause premature polymerization during or after sterilization
- premature polymerization (stability of monomer composition) ([2]; 1 wt % in 2-octyl cyanoacrylate, about one minute and at least twenty-four hours after preparation): does not cause premature polymerization
- solubility in the monomer ([2]; 1 wt % in 2 mL 2-octyl cyanoacrylate, observed about one minute and at least twenty-four hours after preparation, solution remains clear): soluble in the monomer
